Measured values: PubChem BioAssay AID330 (DTP/NCI, 2004)
Several values for one entry are separate records, joined by “and”; a condition that tells them apart may be missing. Equal entries are not always repeated. Toxic doses and inconclusive results are not listed.

Tested on: P388 leukemia ip, CD2F1 mice, survival T/C
Experiment: NCI In Vivo Anticancer Drug Screen. Data for tumor model P388 Leukemia (intraperitoneal) in CD2F1 (CDF1) mice
Conditions: endpoint: median survival time, higher = longer survival
Outline: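 Mice carrying the transplanted tumor received test compound or vehicle. Survival was recorded in each group, and the value is the treated-group measurement divided by that of the vehicle-treated control group.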

[1] = dose: 50.0 mg/kg/injection, schedule: Q01DX005 (ip), vehicle: Klucel (hydroxypropylcellulose) (HPC)
[2] = dose: 0.78 mg/kg/injection, schedule: Q01DX009 (ip), vehicle: saline
[3] = dose: 50.0 mg/kg/injection, schedule: Q01DX009 (ip), vehicle: Klucel (hydroxypropylcellulose) (HPC)
[4] = dose: 100.0 mg/kg/injection, schedule: Q01DX009 (ip), vehicle: Klucel (hydroxypropylcellulose) (HPC)
[5] = dose: 200.0 mg/kg/injection, schedule: Q01DX009 (ip), vehicle: Klucel (hydroxypropylcellulose) (HPC)
[6] = dose: 100.0 mg/kg/injection, schedule: Q01DX005 (ip), vehicle: Klucel (hydroxypropylcellulose) (HPC)
[7] = dose: 200.0 mg/kg/injection, schedule: Q01DX005 (ip), vehicle: Klucel (hydroxypropylcellulose) (HPC)
[8] = dose: 50.0 mg/kg/injection, schedule: Q01DX009 (ip), vehicle: saline

SMILES: C=C1C(=O)OC2C=CCC12 (stereo not given)
- T/C (dose: 3.13 mg/kg/injection, schedule: Q01DX009 (ip), vehicle: distilled water + Tween-80): 99 % of control
- T/C (dose: 6.25 mg/kg/injection, schedule: Q01DX009 (ip), vehicle: distilled water + Tween-80): 99 % of control
- T/C (dose: 12.5 mg/kg/injection, schedule: Q01DX009 (ip), vehicle: distilled water + Tween-80): 100 % of control
- T/C (dose: 25.0 mg/kg/injection, schedule: Q01DX009 (ip), vehicle: distilled water + Tween-80): 107 % of control
- T/C (dose: 50.0 mg/kg/injection, schedule: Q01DX009 (ip), vehicle: distilled water + Tween-80): 107 % of control

SMILES: COc1cccc(C(=O)c2ccncc2)c1OC
- T/C (dose: 12.5 mg/kg/injection, schedule: Q01DX009 (ip), vehicle: water): 100 % of control
- T/C (dose: 25.0 mg/kg/injection, schedule: Q01DX009 (ip), vehicle: water): 100 % of control
- T/C (dose: 50.0 mg/kg/injection, schedule: Q01DX009 (ip), vehicle: water): 103 % of control
- T/C (dose: 100.0 mg/kg/injection, schedule: Q01DX009 (ip), vehicle: water): 104 % of control
- T/C (dose: 200.0 mg/kg/injection, schedule: Q01DX009 (ip), vehicle: water): 100 % of control

SMILES: Nc1ncc2[nH]c(N)nc2n1
- T/C (dose: 12.5 mg/kg/injection, schedule: Q01DX005 (ip), vehicle: Klucel (hydroxypropylcellulose) (HPC)): 106 % of control
- T/C (dose: 25.0 mg/kg/injection, schedule: Q01DX005 (ip), vehicle: Klucel (hydroxypropylcellulose) (HPC)): 97 % of control
- T/C [1]: 104 % of control and 107 % of control

SMILES: O=NNc1ccccn1
- T/C [2]: 106 % of control
- T/C (dose: 1.5 mg/kg/injection, schedule: Q01DX009 (ip), vehicle: saline): 100 % of control
- T/C (dose: 1.5 mg/kg/injection, schedule: Q01DX009 (ip), vehicle: water): 103 % of control
- T/C (dose: 1.56 mg/kg/injection, schedule: Q01DX005 (ip), vehicle: water): 103 % of control and 106 % of control and 112 % of control
- T/C (dose: 1.56 mg/kg/injection, schedule: Q01DX009 (ip), vehicle: saline + alcohol): 108 % of control
- T/C (dose: 1.59 mg/kg/injection, schedule: Q01DX009 (ip), vehicle: water): 119 % of control
- T/C (dose: 3.0 mg/kg/injection, schedule: Q01DX009 (ip), vehicle: saline): 118 % of control
- T/C (dose: 3.0 mg/kg/injection, schedule: Q01DX009 (ip), vehicle: water): 121 % of control
- T/C (dose: 3.12 mg/kg/injection, schedule: Q01DX009 (ip), vehicle: saline + alcohol): 123 % of control
- T/C (dose: 12.0 mg/kg/injection, schedule: Q01DX009 (ip), vehicle: water): 151 % of control and 163 % of control
- T/C (dose: 25.0 mg/kg/injection, schedule: Q01DX009 (ip), vehicle: saline + alcohol): 175 % of control

SMILES: Cc1cc(C2(c3cc(C)c(O)c(C)c3)c3ccccc3-c3ccccc32)cc(C)c1O
- T/C [3]: 99 % of control
- T/C [4]: 99 % of control
- T/C [5]: 96 % of control

SMILES: C=CC[P+](Cc1cccc(C)c1)(c1ccccc1)c1ccccc1
- T/C [2]: 99 % of control
- T/C (dose: 1.56 mg/kg/injection, schedule: Q01DX009 (ip), vehicle: saline): 111 % of control
- T/C (dose: 3.13 mg/kg/injection, schedule: Q01DX009 (ip), vehicle: saline): 104 % of control

SMILES: COc1ccc(C2=NCC2(Cl)Cl)cc1
- T/C (dose: 12.5 mg/kg/injection, schedule: Q01DX009 (ip), vehicle: other): 97 % of control
- T/C (dose: 25.0 mg/kg/injection, schedule: Q01DX009 (ip), vehicle: other): 95 % of control
- T/C (dose: 50.0 mg/kg/injection, schedule: Q01DX009 (ip), vehicle: other): 105 % of control
- T/C (dose: 100.0 mg/kg/injection, schedule: Q01DX009 (ip), vehicle: other): 96 % of control
- T/C (dose: 200.0 mg/kg/injection, schedule: Q01DX009 (ip), vehicle: other): 99 % of control

SMILES: CCCc1cc2c(=O)c(C(=O)OC)c[nH]c2cc1N(CC)CC
- T/C [1]: 96 % of control
- T/C [6]: 100 % of control
- T/C [7]: 104 % of control

SMILES: c1cc2nc(-c3ccc4oc(C5=NCCN5)cc4c3)[nH]c2cc1C1=NCCN1
- T/C (dose: 12.5 mg/kg/injection, schedule: Q01DX005 (ip), vehicle: saline): 98 % of control
- T/C (dose: 25.0 mg/kg/injection, schedule: Q01DX005 (ip), vehicle: saline): 113 % of control
- T/C (dose: 50.0 mg/kg/injection, schedule: Q01DX005 (ip), vehicle: saline): 113 % of control and 118 % of control

SMILES: Nc1nc([Se])c2ncn(C3OC(CO)C(O)C3O)c2n1 (stereo not given)
- T/C (dose: 4.0 mg/kg/injection, schedule: Q01DX009 (ip), vehicle: saline): 150 % of control and 157 % of control
- T/C (dose: 6.25 mg/kg/injection, schedule: Q01DX009 (ip), vehicle: saline): 159 % of control
- T/C (dose: 8.0 mg/kg/injection, schedule: Q01DX009 (ip), vehicle: saline): 164 % of control and 179 % of control
- T/C (dose: 8.0 mg/kg/injection, schedule: Q01DX009 (ip), vehicle: water): 157 % of control
- T/C (dose: 12.5 mg/kg/injection, schedule: Q01DX009 (ip), vehicle: saline): 183 % of control
- T/C (dose: 16.0 mg/kg/injection, schedule: Q01DX009 (ip), vehicle: saline): 157 % of control and 198 % of control and 202 % of control
- T/C (dose: 16.0 mg/kg/injection, schedule: Q01DX009 (ip), vehicle: water): 160 % of control and 161 % of control
- T/C (dose: 25.0 mg/kg/injection, schedule: Q01DX009 (ip), vehicle: saline): 186 % of control
- T/C (dose: 32.0 mg/kg/injection, schedule: Q01DX009 (ip), vehicle: saline): 121 % of control and 247 % of control and 98 % of control
- T/C (dose: 32.0 mg/kg/injection, schedule: Q01DX009 (ip), vehicle: water): 190 % of control and 191 % of control
- T/C [8]: 96 % of control

SMILES: N=c1sccn1CC(O)c1ccccc1 (stereo not given)
- T/C (dose: 100.0 mg/kg/injection, schedule: Q01DX001 (ip), vehicle: Klucel (hydroxypropylcellulose) (HPC)): 100 % of control
- T/C (dose: 200.0 mg/kg/injection, schedule: Q01DX001 (ip), vehicle: Klucel (hydroxypropylcellulose) (HPC)): 100 % of control

SMILES: O=C1c2ccccc2C(=O)N1SN1C(=O)c2ccccc2C1=O
- T/C [3]: 110 % of control
- T/C [4]: 109 % of control
- T/C [5]: 102 % of control
- T/C (dose: 400.0 mg/kg/injection, schedule: Q01DX009 (ip), vehicle: Klucel (hydroxypropylcellulose) (HPC)): 109 % of control

SMILES: CCCCCCCCCCCCCCCCCCSC1=CC(=O)C(OC)=C(OC)C1=O
- T/C (dose: 3.13 mg/kg/injection, schedule: Q01DX009 (ip), vehicle: Klucel (hydroxypropylcellulose) (HPC)): 92 % of control
- T/C (dose: 6.25 mg/kg/injection, schedule: Q01DX009 (ip), vehicle: Klucel (hydroxypropylcellulose) (HPC)): 100 % of control
- T/C (dose: 12.5 mg/kg/injection, schedule: Q01DX009 (ip), vehicle: Klucel (hydroxypropylcellulose) (HPC)): 100 % of control
- T/C (dose: 25.0 mg/kg/injection, schedule: Q01DX009 (ip), vehicle: Klucel (hydroxypropylcellulose) (HPC)): 92 % of control
- T/C [3]: 97 % of control

SMILES: O=c1[nH]c(=O)c2[nH]c(Br)nc2[nH]1
- T/C [1]: 102 % of control
- T/C [6]: 100 % of control
- T/C [7]: 100 % of control

SMILES: COc1ccc2c(c1)C=CC1OC(C(C)=O)(C(C)=O)C(C=O)=CN21 (stereo not given)
- T/C (dose: 60.0 mg/kg/injection, schedule: Q01DX005 (ip), vehicle: saline with Tween-80): 92 % of control
- T/C (dose: 120.0 mg/kg/injection, schedule: Q01DX005 (ip), vehicle: saline with Tween-80): 89 % of control
- T/C (dose: 240.0 mg/kg/injection, schedule: Q01DX005 (ip), vehicle: saline with Tween-80): 98 % of control

SMILES: COc1ccc(C2CCc3cc4c(cc3C2=O)OCO4)cc1OC (stereo not given)
- T/C (dose: 200.0 mg/kg/injection, schedule: Q04DX003 (ip), vehicle: saline with Tween-80): 90 % of control

SMILES: C=C(C)C(=O)Nc1ccc2nn(-c3ccccc3O)nc2c1
- T/C [8]: 93 % of control
- T/C (dose: 100.0 mg/kg/injection, schedule: Q01DX009 (ip), vehicle: saline): 86 % of control
- T/C (dose: 200.0 mg/kg/injection, schedule: Q01DX009 (ip), vehicle: saline): 94 % of control

SMILES: COc1cc2oc3c(C)c(=O)cc4oc(-c5ccccc5)cc(c2c2c1CCC(c1ccccc1)O2)c43 (stereo not given)
- T/C (dose: 6.25 mg/kg/injection, schedule: Q01DX005 (ip), vehicle: saline with Tween-80): 106 % of control
- T/C (dose: 7.0 mg/kg/injection, schedule: Q01DX005 (ip), vehicle: Klucel (hydroxypropylcellulose) (HPC)): 116 % of control and 211 % of control
- T/C (dose: 12.5 mg/kg/injection, schedule: Q01DX005 (ip), vehicle: saline with Tween-80): 106 % of control
- T/C (dose: 14.0 mg/kg/injection, schedule: Q01DX005 (ip), vehicle: Klucel (hydroxypropylcellulose) (HPC)): 98 % of control
- T/C (dose: 25.0 mg/kg/injection, schedule: Q01DX005 (ip), vehicle: saline with Tween-80): 121 % of control
- T/C (dose: 50.0 mg/kg/injection, schedule: Q01DX005 (ip), vehicle: saline with Tween-80): 124 % of control
- T/C (dose: 100.0 mg/kg/injection, schedule: Q01DX005 (ip), vehicle: saline with Tween-80): 114 % of control
